Laboratory results: PubChem BioAssay (NCI)
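1) Cells in 96-well plates. 2) Compound, 48 h, 5 concentrations. 3) Linear interpolation between surrounding doses. 4) Unreached endpoint = highest concentration. Here, GI50 denotes the concentration required for 50% inhibition of growth. Definition used: TGI = concentration required for complete inhibition of growth.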

What was measured:
Assay in all cases: growth of human tumour cells (NCI), 48 h; in the data active = GI50 below about 0.43 µM; inactive = the rest
[1] = test system: NCI-H522 lung
[2] = test system: SNB-75 CNS
[3] = test system: MCF7 breast
[4] = test system: CAKI-1 renal
[5] = test system: U251 CNS
[6] = test system: NCI/ADR-RES ovarian
[7] = test system: BT-549 breast
[8] = test system: A549 NSCLC
[9] = test system: NCI-H23 lung
[10] = test system: EKVX NSCLC
[11] = test system: HCT-116 colon
[12] = test system: NCI-H460 lung
[13] = test system: SK-MEL-2 melanoma
[14] = test system: TK-10 renal
[15] = test system: UACC-257 melanoma
[16] = test system: M14 melanoma
[17] = test system: K-562 leukemia
[18] = test system: OVCAR-4 ovarian
[19] = test system: COLO 205 colon
[20] = test system: UO-31 renal
[21] = test system: T-47D breast
[22] = test system: RPMI-8226 leukemia
[23] = test system: UACC-62 melanoma
[24] = test system: MDA-MB-231 breast
[25] = test system: PC-3 prostate
[26] = test system: SK-MEL-28 melanoma
[27] = test system: NCI-H226 lung
[28] = test system: HOP-62 NSCLC
[29] = test system: OVCAR-5 ovarian
[30] = test system: ACHN renal
[31] = test system: SF-268 CNS
[32] = test system: SW-620 colon
[33] = test system: SF-539 CNS
[34] = test system: SK-OV-3 ovarian
[35] = test system: HT29 colon
[36] = test system: SNB-19 CNS
[37] = test system: SN12C renal
[38] = test system: HS 578T breast
[39] = test system: SK-MEL-5 melanoma
[40] = test system: DU-145 prostate
[41] = test system: HOP-92 NSCLC
[42] = test system: MDA-MB-435
[43] = test system: MALME-3M melanoma
[44] = test system: HCT-15 colon
[45] = test system: MOLT-4 leukemia
[46] = test system: 786-0 renal
[47] = test system: IGROV1 ovarian
[48] = test system: HCC-2998 colon
[49] = test system: SF-295 CNS
[50] = test system: LOX IMVI melanoma
[51] = test system: A498 renal
[52] = test system: SR leukemia
[53] = test system: CCRF-CEM leukemia
[54] = test system: KM12 colon
[55] = test system: OVCAR-8 ovarian
[56] = test system: OVCAR-3 ovarian

CO/N=C(/C)c1cccc(Nc2cc(-c3ccccc3)nc3ccc(OC)cc23)c1
14.1 µM: TGI [31]
17.7 µM: TGI [23]
6.17 µM: TGI [28]
56.5 µM: TGI [3]
7.78 µM: TGI [43]
64.3 µM: TGI [38]
18.4 µM: TGI [11]
46.6 µM: TGI [7]
31.5 µM: TGI [30] | TGI [40]
inactive: GI50 [1] 17.8 µM | GI50 [2] 42.9 µM | GI50 [3] 5.71 µM | GI50 [4] 3180 nM | GI50 [5] 6.62 µM | GI50 [6] 4.7 µM | GI50 [7] 22.4 µM | GI50 [8] 23.1 µM | GI50 [9] 6.08 µM | GI50 [10] 10.8 µM | GI50 [11] 4.25 µM | GI50 [12] 7.07 µM | GI50 [13] 50.3 µM | GI50 [14] 3.32 µM | GI50 [15] 18.4 µM | GI50 [16] 6.92 µM | GI50 [17] 2720 nM | GI50 [18] 20.2 µM | GI50 [19] 33.1 µM | GI50 [20] 15.5 µM | GI50 [21] 71 µM | GI50 [22] 3.12 µM | GI50 [23] 4.33 µM | GI50 [24] 3.49 µM | GI50 [25] 4.68 µM | GI50 [26] 28.6 µM | GI50 [27] 15.7 µM | GI50 [28] 2370 nM | GI50 [29] 15.3 µM | GI50 [30] 14.1 µM | GI50 [31] 3.64 µM | GI50 [32] 4.74 µM | GI50 [33] 2450 nM | GI50 [34] 29.2 µM | GI50 [35] 34.1 µM | GI50 [36] 35.2 µM | GI50 [37] 2900 nM | GI50 [38] 27.6 µM | GI50 [39] 2.63 µM | GI50 [40] 12 µM | GI50 [41] 2.55 µM | GI50 [42] 1990 nM | GI50 [43] 2.45 µM | GI50 [44] 14.9 µM | GI50 [45] 3.05 µM | GI50 [46] 3.18 µM | GI50 [47] 26.2 µM | GI50 [48] 4.97 µM | GI50 [49] 3.82 µM
41.1 µM: TGI [44]
13.3 µM: TGI [46]
72 µM: TGI [34]
8.13 µM: TGI [39]
23.7 µM: TGI [5]
12.8 µM: TGI [14]
> 100 µM: TGI [1] | TGI [2] | TGI [12] | TGI [13] | TGI [17] | TGI [20] | TGI [21] | TGI [35] | TGI [36] | TGI [45] | TGI [47]
4.89 µM: TGI [33]
21.1 µM: TGI [49]
24 µM: TGI [6]
27.4 µM: TGI [9]
66.8 µM: TGI [26]
10.9 µM: TGI [4]
37.3 µM: TGI [29]
53.9 µM: TGI [8]
66.6 µM: TGI [18]
30.3 µM: TGI [10]
41 µM: TGI [27]
97.8 µM: TGI [19]
20.8 µM: TGI [48]
9.67 µM: TGI [37]
29.6 µM: TGI [32]
8.28 µM: TGI [22]
17.8 µM: TGI [24]
21.6 µM: TGI [25]
8.55 µM: TGI [41]
25.3 µM: TGI [16]
43.2 µM: TGI [15]
6.12 µM: TGI [42]

CCN1C(=O)N(CC)C2Nn3c(s/c(=C4\C(=O)N(C)c5ccccc54)c3=O)=NC21 (stereo not drawn)
> 100 µM: TGI [50] | TGI [1] | TGI [3] | TGI [4] | TGI [5] | TGI [6] | TGI [8] | TGI [9] | TGI [10] | TGI [11] | TGI [12] | TGI [15] | TGI [16] | TGI [52] | TGI [17] | TGI [18] | TGI [19] | TGI [20] | TGI [21] | TGI [22] | TGI [24] | TGI [25] | TGI [26] | TGI [27] | TGI [53] | TGI [30] | TGI [31] | TGI [32] | TGI [54] | TGI [35] | TGI [39] | TGI [41] | TGI [55] | TGI [56] | TGI [43] | TGI [44] | TGI [45] | TGI [47] | TGI [49]
5.68 µM: TGI [51]
inactive: GI50 [50] 4.82 µM | GI50 [1] 2.98 µM | GI50 [3] 1.03 µM | GI50 [4] 1050 nM | GI50 [5] 4.21 µM | GI50 [6] 1.95 µM | GI50 [8] 5.08 µM | GI50 [9] 3.38 µM | GI50 [10] 2.25 µM | GI50 [11] 1.95 µM | GI50 [12] 3.35 µM | GI50 [15] 7.71 µM | GI50 [51] 1670 nM | GI50 [16] 2.41 µM | GI50 [52] 978 nM | GI50 [17] 727 nM | GI50 [18] 1.98 µM | GI50 [19] 2.26 µM | GI50 [20] 2.82 µM | GI50 [21] 3.14 µM | GI50 [22] 3.97 µM | GI50 [24] 3.42 µM | GI50 [25] 3.52 µM | GI50 [26] 6.45 µM | GI50 [27] > 100 µM | GI50 [53] 3.3 µM | GI50 [30] 3.42 µM | GI50 [31] > 100 µM | GI50 [32] 1.52 µM | GI50 [54] 2910 nM | GI50 [35] 2.33 µM | GI50 [39] 4.61 µM | GI50 [41] 69.5 µM | GI50 [55] 4.3 µM | GI50 [56] 1990 nM | GI50 [43] 3.9 µM | GI50 [44] 1.27 µM | GI50 [45] 3.92 µM | GI50 [47] 3.37 µM | GI50 [49] 2.83 µM
